Experimental data reported in patent US20180185423A1, “SEAWEED EXTRACTS WITH ANTI-CANCER ACTIVITY” (OCEANS LTD., priority 2015, published 2018).
Values joined by “and” are separate entries in the source; they are usually repeats but may differ in a detail not shown here. Identical values can stand only once.

Experiments:
Assay in all cases: CIMA assay (colorimetric indicator of metabolic activity), 72 h exposure
[1] = system: A549 (lung carcinoma); assay type: cell-based, human; conditions: A549, SDS 5% control; 0 = 100.0
Procedure: (§1) Stock solutions of the extracts were prepared in dimethylsulfoxide (DMSO) at 10 mg/mL and stored in 200 μl aliquots at −20° C. until analysis. This preparation ensured that the DMSO delivered to cells in culture never exceeded 1%.
(§2) Prepared extracts were assessed following chronic exposure conditions in which cells were seeded at 2×10^3 cells/well (96 wells plate) and incubated with test compounds for 72 h. Each compound was evaluated over a range of concentrations (0, 10, 25, 50 or 100 μg/ml). Cell proliferation was initially assessed using a standard colorimetric indicator of metabolic activity (CIMA) assay. In this assay, tetrazole reduction was evaluated as a measure of metabolic function that evaluates mitochondrial activity to determine the extent of cell proliferation within a culture. This assay is based on the reduction of yellow tetrazolium salt to purple formazan by mitochondrial reductases enzyme in viable cells, resulting in a color changed that confers a change in absorbance. […] From the results shown in Table 2 and FIGS. 4 and 5, the extracts were selected for additional fractionation and evaluated in the same manner.

[2] = system: PC3; assay type: cell-based; conditions: PC3, SDS 5% control; 0 = 100.0
Procedure: as §1, §2

[3] = system: CCD1079SK (fibroblast, noncancerous but proliferating); assay type: cell-based, human; conditions: SDS 5% control, 0 = 100.0, in % (unit assumed)
Procedure: as §1
(§3) Prepared extracts were assessed following chronic exposure conditions in which cells were seeded at 2×10^3 cells/well (96 wells plate) and incubated with test compounds for 72 h. Each compound was evaluated over a range of concentrations (0, 10, 25, 50 or 100 μg/ml). Cell proliferation was initially assessed using a standard colorimetric indicator of metabolic activity (CIMA) assay. In this assay, tetrazole reduction was evaluated as a measure of metabolic function that evaluates mitochondrial activity to determine the extent of cell proliferation within a culture. This assay is based on the reduction of yellow tetrazolium salt to purple formazan by mitochondrial reductases enzyme in viable cells, resulting in a color changed that confers a change in absorbance. Six human cell lines were selected for primary evaluation: U373 (glioblastoma-astrocytoma), A549 (lung carcinoma), THP-1 (acute monocytic leukemia), MCF7 (mammary gland adenocarcinoma), SKOV3 (ovarian adenocarcinoma), and CCD1079SK (fibroblast, noncancerous but proliferating). From the results shown in Table 2 and FIGS. 4 and 5, the extracts were selected for additional fractionation and evaluated in the same manner.
(§4) Lead crude extracts were fractionated into five fractions by C-18 SPE column separation using 15 ml each of 5% methanol (fraction 1), 25% methanol (fraction 2), 50% methanol (fraction 3), 100% methanol (fraction 4) and […] (fraction 5). Extracts were fractionated and the resulting fractions were evaluated using CIMA assay. Bio-assay guided fractionation provided detailed information regarding the compound(s) responsible for specific bioactivity.

[4] = system: MCF7 (mammary gland adenocarcinoma); assay type: cell-based, human; conditions: MCF7, SDS 5% control; 0 = 100.0; in % (unit assumed)
Procedure: as §1, §3, §4

[5] = system: SKOV3 (ovarian adenocarcinoma); assay type: cell-based, human; conditions: SKOV3, SDS 5% control; 0 = 100.0; in % (unit assumed)
Procedure: as §1, §3, §4

[6] = system: THP-1 (acute monocytic leukemia); assay type: cell-based, human; conditions: THP-1, SDS 5% control; 0 = 100.0; in % (unit assumed)
Procedure: as §1, §3, §4

[7] = system: U373 (glioblastoma-astrocytoma); assay type: cell-based, human; conditions: U373, SDS 5% control; 0 = 100.0; in % (unit assumed)
Procedure: as §1, §3, §4

CCCCCCCCCCCCOS(=O)(=O)[O-].[Na+] [SDS]
AVG (viability, CIMA assay) [1]: 68.7% | AVG (viability, CIMA assay) [2]: 77.3% | AVG (viability, CIMA assay) [3]: 9.4 and 11.3 | AVG (viability, CIMA assay) [4]: 44.1 and 49.9 | AVG (viability, CIMA assay) [5]: 78.9 and 56.5 | AVG (viability, CIMA assay) [6]: 20.3 and 36.2 | AVG (viability, CIMA assay) [7]: 48.4 and 58.1
